According to publication PMC10648937, “Drug distribution and efficacy of the DprE1 inhibitor BTZ-043 in the C3HeB/FeJ mouse tuberculosis model” (Antimicrobial Agents and Chemotherapy, 2023):
“And” between values parts separate entries of the source, which are not always exact repeats. Equal entries are not always repeated. Where two headings read alike, the source gives them in different places.

What was measured:
[1] = system: Mtb Erdman; test: Semi-quantitative MBC (sqMBC) assay; assay type: cell-based, Mycobacterium tuberculosis; details: M. tuberculosis Erdman; for sqMBC: 10 d incubation, 99% (2-log10) CFU reduction of inoculum; for sqMBC + huSA: with 4% huSA
[2] = system: Mtb Erdman; test: In vitro kill kinetics under replicating conditions; assay type: cell-based, Mycobacterium tuberculosis; details: 8× and 20× MIC, CFU/mL over 14 days
[3] = system: non-replicating Mtb in rabbit caseum; test: Explanted rabbit caseum MBC assay; assay type: cell-based, Mycobacterium tuberculosis; details: test concentrations up to 512 µM, 7 days
[4] = system: Mtb Erdman; test: Efficacy in lungs of Mtb Erdman-infected C3HeB/FeJ mice (CFU, kill rates); assay type: in vivo, Mycobacterium tuberculosis; details: for kill rate k[0-28] (SE), lungs, Type I (TI) subset / kill rate k[0-56] (SE), lungs, Type I (TI) subset / kill rate k[28-56] (SE), lungs, Type I (TI) subset: TI lesions; for kill rate k[0-28] (SE), lungs, Type III (TIII) subset / kill rate k[0-56] (SE), lungs, Type III (TIII) subset / kill rate k[28-56] (SE), lungs, Type III (TIII) subset: TIII lesions; for kill rate k[0-28] (SE), lungs: day 0 to 28; for kill rate k[0-56] (SE), lungs: day 0 to 56; for kill rate k[28-56] (SE), lungs: day 28 to 56
[5] = system: Mtb Erdman; test: Efficacy in spleens of Mtb Erdman-infected C3HeB/FeJ mice (CFU, kill rates); assay type: in vivo, Mycobacterium tuberculosis; details: for kill rate k[0-28] (SE), spleens: day 0 to 28; for kill rate k[0-56] (SE), spleens: day 0 to 56; for kill rate k[28-56] (SE), spleens: day 28 to 56
[6] = system: Mtb Erdman-infected C3HeB/FeJ mice; test: Pulmonary histopathology (pathologist scores and LIRA) in C3HeB/FeJ mice; assay type: in vivo, mouse
[7] = C3HeB/FeJ, mouse, in vivo, 1 h
[8] = system: intracellular mycobacteria in macrophages; parameters: method as in PMID 19299584; details: cited from earlier work
[9] = system: non-growing streptomycin-dependent Mtb strain 18b; parameters: method as in PMID 20679505; details: cited from earlier work
[10] = human; cited from earlier work
[11] = Plasma and lesion drug levels by LCM-LC/MS-MS in C3HeB/FeJ mice; details: 100 mg/kg
[12] = system: Mtb Erdman; test: Broth microdilution MIC (Alamar Blue endpoint), with and without 4% huSA (serum-shift assay); details: for shift in MIC in the presence of huSA: physiologic levels (4%) of huSA
[13] = system: non-replicating Mtb in rabbit caseum; parameters: method as in PMID 34370580; details: similarly reported previously; cited from earlier work
[14] = system: Mtb; parameters: method as in PMID 34370580; details: C3HeB/FeJ mice, 8 weeks (5 of 7 days per week), cited from earlier work
[15] = 50 mg/kg QD, 8 weeks of treatment
[16] = 200 mg/kg QD, 8 weeks of treatment
[17] = 200 mg/kg QD, 8 weeks, group average
[18] = 200 mg/kg QD, 8 weeks, mice Mx I to Mx L
[19] = Mycobacterium tuberculosis, ERDMAN
[20] = Mycobacterium tuberculosis, ERDMAN, read-out: MIC + huSA

C[C@H]1COC2(CCN(c3nc(=O)c4cc(C(F)(F)F)cc([N+](=O)[O-])c4s3)CC2)O1 [BTZ-043]
sqMBC [1]: 0.016 µg/mL
sqMBC + huSA [1]: 0.03 µg/mL
kill kinetics (cidality) [2]: cidality
activity against non-replicating Mtb in rabbit caseum MBC assay [3]: lacked appreciable activity
lung CFU reduction from the start of treatment [4, 15]: ~ 1.04 log10 CFU
lung CFU reduction versus untreated [4, 15]: ~ 2.43 log10 CFU
kill rate k[0-28] (SE), lungs, Type I (TI) subset ([4]; 50 mg/kg QD): 0.011 (0.010) log10CFU per day
kill rate k[0-56] (SE), lungs, Type I (TI) subset ([4]; 50 mg/kg QD): 0.023 (0.008) log10CFU per day
kill rate k[28-56] (SE), lungs, Type I (TI) subset ([4]; 50 mg/kg QD): 0.032 (0.015) log10CFU per day
kill rate k[0-28] (SE), lungs, Type III (TIII) subset ([4]; 50 mg/kg QD): 0.063 (0.007) log10CFU per day
kill rate k[0-56] (SE), lungs, Type III (TIII) subset ([4]; 50 mg/kg QD): 0.039 (0.007) log10CFU per day
kill rate k[28-56] (SE), lungs, Type III (TIII) subset ([4]; 50 mg/kg QD): 0.005 (0.010) log10CFU per day
kill rate k[0-28] (SE), lungs ([4]; 50 mg/kg QD): 0.022 log10CFU per day and 0.022 (0.018) log10CFU per day
kill rate k[0-56] (SE), lungs ([4]; 50 mg/kg QD): 0.019 (0.009) log10CFU per day
kill rate k[28-56] (SE), lungs ([4]; 50 mg/kg QD): 0.015 log10CFU per day and 0.015 (0.021) log10CFU per day
kill rate k[0-28] (SE), lungs, Type I (TI) subset ([4]; 100 mg/kg QD): 0.011 (0.011) log10CFU per day
kill rate k[0-56] (SE), lungs, Type I (TI) subset ([4]; 100 mg/kg QD): 0.047 (0.011) log10CFU per day
kill rate k[28-56] (SE), lungs, Type I (TI) subset ([4]; 100 mg/kg QD): 0.078 (0.017) log10CFU per day
kill rate k[0-28] (SE), lungs, Type III (TIII) subset ([4]; 100 mg/kg QD): 0.041 (0.007) log10CFU per day
kill rate k[0-56] (SE), lungs, Type III (TIII) subset ([4]; 100 mg/kg QD): 0.022 (0.005) log10CFU per day
kill rate k[28-56] (SE), lungs, Type III (TIII) subset ([4]; 100 mg/kg QD): 0.003 (0.015) log10CFU per day
kill rate k[0-28] (SE), lungs ([4]; 100 mg/kg QD): 0.006 log10CFU per day and 0.006 (0.013) log10CFU per day
kill rate k[0-56] (SE), lungs ([4]; 100 mg/kg QD): 0.031 (0.007) log10CFU per day
kill rate k[28-56] (SE), lungs ([4]; 100 mg/kg QD): 0.056 log10CFU per day and 0.056 (0.015) log10CFU per day
lung CFU reduction from the start of treatment [4, 16]: ~ 2.59 log10 CFU
lung CFU reduction versus untreated [4, 16]: ~ 3.98 log10 CFU
kill rate k[0-28] (SE), lungs, Type I (TI) subset ([4]; 200 mg/kg QD): 0.023 (0.011) log10CFU per day
kill rate k[0-56] (SE), lungs, Type I (TI) subset ([4]; 200 mg/kg QD): 0.042 (0.009) log10CFU per day
kill rate k[28-56] (SE), lungs, Type I (TI) subset ([4]; 200 mg/kg QD): 0.062 (0.014) log10CFU per day
kill rate k[0-28] (SE), lungs, Type III (TIII) subset ([4]; 200 mg/kg QD): 0.019 (0.009) log10CFU per day
kill rate k[0-56] (SE), lungs, Type III (TIII) subset ([4]; 200 mg/kg QD): 0.049 (0.005) log10CFU per day
kill rate k[28-56] (SE), lungs, Type III (TIII) subset ([4]; 200 mg/kg QD): 0.079 (0.015) log10CFU per day
kill rate k[0-28] (SE), lungs ([4]; 200 mg/kg QD): 0.005 log10CFU per day and 0.005 (0.010) log10CFU per day
kill rate k[0-56] (SE), lungs ([4]; 200 mg/kg QD): 0.046 (0.008) log10CFU per day
kill rate k[28-56] (SE), lungs ([4]; 200 mg/kg QD): 0.087 log10CFU per day and 0.087 (0.013) log10CFU per day
effect on lung bacterial load ([4]; 4 weeks of treatment, all dose groups (50, 100, 200 mg/kg), Dunnett's P = 0.002 to 0.03): statistically significant reductions
effect on lung bacterial load ([4]; 8 weeks of treatment, all dose groups, Dunnett's P < 0.0001): statistically significant reduction
kill rate k[0-28] (SE), spleens ([5]; 50 mg/kg QD): 0.048 (0.006) log10CFU per day
kill rate k[0-56] (SE), spleens ([5]; 50 mg/kg QD): 0.026 (0.004) log10CFU per day
kill rate k[28-56] (SE), spleens ([5]; 50 mg/kg QD): 0.004 (0.007) log10CFU per day
kill rate k[0-28] (SE), spleens ([5]; 100 mg/kg QD): 0.046 (0.006) log10CFU per day
kill rate k[0-56] (SE), spleens ([5]; 100 mg/kg QD): 0.041 (0.003) log10CFU per day
kill rate k[28-56] (SE), spleens ([5]; 100 mg/kg QD): 0.036 (0.006) log10CFU per day
kill rate k[0-28] (SE), spleens ([5]; 200 mg/kg QD): 0.057 (0.005) log10CFU per day
kill rate k[0-56] (SE), spleens ([5]; 200 mg/kg QD): 0.046 (0.003) log10CFU per day
kill rate k[28-56] (SE), spleens ([5]; 200 mg/kg QD): 0.034 (0.006) log10CFU per day
mice with spleen CFU below the lower limit of detection ([5]; 200 mg/kg, 8 weeks, limit 1.7 log10 CFU/spleen): 4 out of 8
effect on spleen bacterial load ([5]; 4 weeks of treatment, all dose groups, Dunnett's P = 0.003 to 0.0001): statistically significant reductions
effect on spleen burdens ([5]; 8 weeks of treatment, Dunnett's P < 0.0001): statistically significant reductions
percent lung involvement, Healthy Tissue (LIRA), average [6, 17]: 73.70%
percent lung involvement, Type I - Caseum (LIRA), average [6, 17]: 10% and 10.01%
percent lung involvement, Type I - Rim (LIRA), average [6, 17]: 4.85%
percent lung involvement, Type II (LIRA), average [6, 17]: 0%
percent lung involvement, Type III (LIRA), average [6, 17]: 11% and 11.44%
percent lung involvement, Healthy Tissue (LIRA), individual mice [6, 18]: 90.59% and 66.70% and 47.22% and 90.31%
percent lung involvement, Type I - Caseum (LIRA), individual mice [6, 18]: 2.82% and 6.51% and 30.69% and 0.00%
percent lung involvement, Type I - Rim (LIRA), individual mice [6, 18]: 3.75% and 4.76% and 10.89% and 0.00%
percent lung involvement, Type II (LIRA), individual mice [6, 18]: 0.00%
percent lung involvement, Type III (LIRA), individual mice [6, 18]: 2.83% and 22.03% and 11.21% and 9.69%
histology scores by board-certified pathologist ([6]; 200 mg/kg, 8 weeks of treatment, compared to untreated mice): improved overall histology scores
drug level in cellular lesion over the serum-shifted MIC [7]: 121 fold
drug level in lung parenchyma over the serum-shifted MIC [7]: 228 fold
drug level in plasma over the serum-shifted MIC [7]: 237 fold
deduced MIC against intracellular mycobacteria in macrophages [8]: < 0.01 µg/mL
activity against non-growing Mtb strain 18b following depletion of streptomycin [9]: limited activity
plasma protein binding [10]: 99.4%
drug levels in plasma, lung parenchyma, cellular lesion and cellular-caseum interface relative to serum-shifted MIC ([11]; 2.5 weeks, end of the dosing interval (24 h)): fell below the serum-shifted MIC
drug level in cellular-caseum interface over the serum-shifted MIC ([11]; 5 of 7 days per week for 2.5 weeks, Tmax (1 h)): 93 fold
protein binding indicated by serum-shift MIC assay ([12]; 4% huSA): ~ 75%
MIC ([12]; M. tuberculosis Erdman, 7H9 media): 0.008 µg/mL
MIC [12, 19]: 0.008 µg/mL
MIC [12, 20]: 0.03 µg/mL

O=C1CCc2c(OC[C@]3(O)CCN(c4c(F)cc(Cl)cc4F)C[C@H]3O)ccc(F)c2N1 [OPC-167832]
sqMBC [1]: 0.001 µg/mL
sqMBC + huSA [1]: 0.016 µg/mL
activity against non-replicating Mtb in rabbit caseum MBC assay [13]: lacked appreciable activity
average lung CFU reduction compared to untreated controls ([14]; 5 and 20 mg/kg QD): 3 log10
MIC [12, 19]: 0.0005 µg/mL
MIC [12, 20]: 0.008 µg/mL
shift in MIC in the presence of huSA [12]: 16 fold

O=c1nc(N2CCN(CC3CCCCC3)CC2)sc2c([N+](=O)[O-])cc(C(F)(F)F)cc12 [PBTZ169]
sqMBC [1]: ≤ 0.002 µg/mL
sqMBC + huSA [1]: 0.016 µg/mL
activity against non-replicating Mtb in rabbit caseum MBC assay [13]: lacked appreciable activity
average lung CFU reduction compared to untreated controls ([14]; 50 and 100 mg/kg QD): 1.5 log10
MIC [12, 19]: ≤ 0.002 µg/mL
MIC [12, 20]: 0.016 µg/mL
shift in MIC in the presence of huSA [12]: 8 fold

COc1ncnc(Cn2cc(C(=O)NCCO)c3ncc(C)cc32)c1C [TBA-7371]
sqMBC [1]: 1 µg/mL
sqMBC + huSA [1]: 1 µg/mL
activity against non-replicating Mtb in rabbit caseum MBC assay [13]: lacked appreciable activity
average lung CFU reduction compared to untreated controls ([14]; 100 and 200 mg/kg BID): 1.5 log10
MIC [12, 19]: 0.5 µg/mL
MIC [12, 20]: 1 µg/mL

CC(=O)NC[C@H]1CN(c2ccc(N3CCOCC3)c(F)c2)C(=O)O1 [linezolid]
sqMBC [1]: > 8 µg/mL
MIC [12, 19]: 1 µg/mL
MIC [12, 20]: 1 µg/mL

COc1c(N2C[C@@H]3CCCN[C@@H]3C2)c(F)cc2c(=O)c(C(=O)O)cn(C3CC3)c12 [moxifloxacin]
sqMBC [1]: 0.125 µg/mL
MIC [12, 19]: 0.06 µg/mL
